# Experimental data taken from US20130131075A1, “NEW COMPOUNDS” (Boehringer Ingelheim International GmbH, priority 2009, published 2013).
# Target: T1, cynomolgus BK1-receptor (Macaca fascicularis, UniProt Q3BCU0)
# T1 construct: expressed in transfected cells; host or cells: CHO cells (homogenate)
# T1 sequence (Q3BCU0 1-352): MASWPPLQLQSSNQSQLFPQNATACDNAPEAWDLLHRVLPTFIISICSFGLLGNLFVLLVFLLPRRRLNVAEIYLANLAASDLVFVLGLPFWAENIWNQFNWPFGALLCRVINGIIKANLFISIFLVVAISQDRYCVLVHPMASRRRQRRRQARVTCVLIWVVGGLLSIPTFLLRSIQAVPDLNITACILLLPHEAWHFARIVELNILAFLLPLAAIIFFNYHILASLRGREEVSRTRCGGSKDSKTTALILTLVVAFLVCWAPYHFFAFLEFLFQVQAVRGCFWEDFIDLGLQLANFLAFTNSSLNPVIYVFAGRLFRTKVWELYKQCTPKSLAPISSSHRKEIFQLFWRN
# Experiment: cynoBK1-receptor binding assay
# Details: CHO cells expressing cynomolgus BK1-receptor, radioligand kallidine (DesArg10,Leu9)
# Outline: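 Radioligand competition on homogenates of CHO cells expressing cynomolgus BK1 receptor (50 to 250 μg protein/assay), incubated 60-180 minutes at ambient temperature with 0.5 to 5.0 nM [3H]kallidine (DesArg10,Leu9) plus increasing test compound. Filtration binding; non-specific defined with 1.0 μM kallidine (DesArg10); Ki from non-linear curve fitting.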
row,Compound,Ki [nM]
1,COc1ncc(C(=O)N[C@@]2(C(=O)NCc3ncc(Nc4c(F)cccc4C(F)(F)F)cc3Cl)CCOC2)cn1 [(258)],37
2,O=C(NC1(C(=O)NCc2ccc(Nc3ccc(Cl)cc3C(F)(F)F)cn2)CC1)c1cnc(O)nc1 [(350)],43
3,CS(=O)(=O)c1ccc(Nc2ccc(CNC(=O)C3(NC(=O)c4cncnc4)CC3)cc2)c(C(F)(F)F)c1 [(32)],200
4,O=C(NC1(C(=O)NCc2ncc(Nc3c(F)cccc3C(F)(F)F)cc2F)CC1)c1cncs1 [(135)],15
5,O=C(N[C@@]1(C(=O)NCc2ccc(Nc3ccc(F)cc3C(F)(F)F)cc2)CCOC1)c1cnc2[nH]ccc2c1 [(383)],225
6,Cc1ncc(C(=O)N[C@@]2(C(=O)NCc3ncc(Nc4ccc(Cl)cc4C(F)(F)F)cc3F)CCOC2)cn1 [(277)],10
7,CNc1ccc(C(=O)NC2(C(=O)NCc3ccc(Nc4ccc(Br)cc4C(F)(F)F)cn3)CC2)cn1 [(343)],7.2
8,Cc1cncc(C(=O)NC2(C(=O)NCc3ccc(Nc4ccc(Cl)cc4C(F)(F)F)cn3)CC2)c1 [(353)],52
9,Nc1cncc(C(=O)NC2(C(=O)NCc3ccc(Nc4ccc(Br)cc4C(F)(F)F)cn3)CC2)c1 [(178)],11
10,O=C(NC1(C(=O)NCc2ccc(Nc3ccc(F)cc3C(F)(F)F)cn2)CC1)c1cncc(Cl)c1 [(339)],49
11,CC(NC(=O)[C@]1(NC(=O)c2cncnc2)CCOC1)c1ccc(Nc2ccc(Cl)cc2C(F)(F)F)cn1 (stereo partly shown) [(163)],288
12,COc1cncc(C(=O)N[C@@]2(C(=O)NCc3ccc(Nc4ccccc4C(F)(F)F)cc3)CCOC2)c1 [(92)],62
13,O=C(NC1(C(=O)NCc2ccc(Nc3ccc(Br)cc3C(F)(F)F)cn2)CC1)c1cncs1 [(172)],9.8
14,Cc1ncc(C(=O)N[C@@]2(C(=O)NCc3ncc(Nc4ccc(F)cc4C(F)(F)F)cc3C)CCOC2)cn1 [(387)],10
15,O=C(N[C@@]1(C(=O)NCc2ncc(Nc3ccc(Cl)cc3C(F)(F)F)cc2Cl)CCOC1)c1cncnc1 [(278)],16
16,N#Cc1ccccc1Nc1cnc(CNC(=O)C2(NC(=O)c3cncnc3)CC2)c(F)c1 [(295)],31
17,Nc1cncc(C(=O)N[C@@]2(C(=O)NCc3ccc(Nc4ccc(Br)cc4C(F)(F)F)cn3)CCOC2)c1 [(222)],68
18,CC(NC(=O)C1(NC(=O)c2cncnc2)CC1)c1ccc(Nc2c(F)cccc2C(F)(F)F)cn1 (stereo not shown) [(123)],8.3
19,Nc1cc(C(=O)N[C@@]2(C(=O)NCc3ccc(Nc4ccccc4C(F)(F)F)cc3)CCOC2)ccn1 [(63)],118
20,Cc1cc(Nc2ccccc2C(F)(F)F)cnc1CNC(=O)[C@]1(NC(=O)c2cncc(N)c2)CCOC1 [(359)],125

row,Compound,Ki [nM]
1,O=C(NC1(C(=O)NCc2ccc(Nc3c(F)cc(Br)cc3Cl)cn2)CC1)c1cncnc1 [(325)],374
2,CC(C)c1ncc(C(=O)NC2(C(=O)NCc3ccc(Nc4ccc(F)cc4C(F)(F)F)cn3)CC2)cn1 [(245)],18
3,O=C(NC1(C(=O)NCc2ccc(Nc3ccc(Cl)cc3C(F)(F)F)cn2)CC1)c1ccnnc1 [(209)],73
4,Cc1ncc(C(=O)N[C@@]2(C(=O)NCc3ccc(Nc4ccc(F)cc4C(F)(F)F)cc3)CCOC2)cn1 [(288)],9.1
5,Nc1cc(C(=O)NC2(C(=O)NCc3ccc(Nc4ccc(F)cc4C(F)(F)F)cn3)CC2)on1 [(150)],37
6,O=C(NC1(C(=O)NCc2ccc(Nc3ccc(Cl)cc3Br)cn2)CC1)c1cncnc1 [(167)],19
7,Nc1ccc(C(=O)NC2(C(=O)NCc3ccc(Nc4ccc(Cl)cc4C(F)(F)F)cn3)CC2)cn1 [(206)],5.1
8,COc1ncc(C(=O)N[C@@]2(C(=O)NCc3ncc(Nc4ccc(Cl)cc4C(F)(F)F)cc3F)CCOC2)cn1 [(314)],15
9,Cc1ncc(C(=O)NC2(C(=O)NCc3ccc(Nc4ccc(F)cc4C(F)(F)F)cn3)CC2)cn1 [(232)],5.6
10,O=C(NC1(C(=O)NCc2ncc(Nc3c(F)cccc3C(F)(F)F)cc2F)CC1)c1cncnc1 [(120)],2.4
11,Cc1cncc(C(=O)NC2(C(=O)NCc3ccc(Nc4ccc(F)cc4C(F)(F)F)cn3)CC2)c1 [(302)],42
12,CNc1cncc(C(=O)N[C@@]2(C(=O)NCc3ncc(Nc4ccc(F)cc4C(F)(F)F)cc3Cl)CCOC2)c1 [(269)],47
13,CNc1ccc(C(=O)NC2(C(=O)NCc3ccc(Nc4ccc(Cl)cc4C(F)(F)F)cn3)CC2)cn1 [(347)],12
14,O=C(NC1(C(=O)NCc2ncc(Nc3c(F)cccc3C(F)(F)F)cc2F)CC1)c1cccc(O)n1 [(136)],42
15,O=C(NC1(C(=O)NCc2ccc(Nc3ccc(Br)cc3C(F)(F)F)cn2)CC1)c1cncnc1 [(54)],3.8
16,Cc1cc(Nc2ccc(F)cc2C(F)(F)F)cnc1CNC(=O)C1(NC(=O)c2cncnc2)CC1 [(306)],2
17,O=C(NC1(C(=O)NCc2ccc(Nc3ccc(Cl)cc3C(F)(F)F)cn2)CC1)c1ccc(NC2CC2)nc1 [(389)],15
18,CNc1cncc(C(=O)NC2(C(=O)NCc3ccc(Nc4ccc(Cl)cc4C(F)(F)F)cn3)CC2)c1 [(280)],25
19,O=C(NC1(C(=O)NCc2ccc(Nc3ccc(Cl)cc3C(F)(F)F)cn2)CC1)c1cc(O)nc(O)n1 [(208)],6.8
20,O=C(NC1(C(=O)NCc2ccc(Nc3ccccc3Cl)cc2)CC1)c1cncnc1 [(2)],25

# Same assay, conditions: at 10 μgmol/L; CHO cells expressing cynomolgus BK1-receptor, radioligand kallidine (DesArg10,Leu9)
row,Compound,inhibition at 10 µM [%]
1,COc1ccc(C(=O)N[C@@]2(C(=O)NCc3ccc(Nc4ccccc4C(F)(F)F)cc3)CCOC2)cc1 [(99)],96
2,CS(=O)(=O)c1ccc(Nc2ccc(CNC(=O)C3(NC(=O)c4cncnc4)CC3)cc2)c(C(F)(F)F)c1 [(32)],93
3,O=C(NC1(C(=O)NCc2ncc(Nc3c(F)cccc3C(F)(F)F)cc2F)CC1)c1cncs1 [(135)],106
4,O=C(N[C@@]1(C(=O)NCc2ccc(Nc3ccccc3C(F)(F)F)cc2)CCOC1)c1cncc(O)c1 [(87)],112
5,Nc1cncc(C(=O)NC2(C(=O)NCc3ccc(Nc4ccc(Br)cc4C(F)(F)F)cn3)CC2)c1 [(178)],107
6,CC(NC(=O)[C@]1(NC(=O)c2cncnc2)CCOC1)c1ccc(Nc2ccc(Cl)cc2C(F)(F)F)cn1 (stereo partly shown) [(163)],87
7,COc1cncc(C(=O)N[C@@]2(C(=O)NCc3ccc(Nc4ccccc4C(F)(F)F)cc3)CCOC2)c1 [(92)],110
8,O=C(NC1(C(=O)NCc2ccc(Nc3ccc(Br)cc3C(F)(F)F)cn2)CC1)c1cncs1 [(172)],100
9,COc1ccc(C(=O)N[C@@]2(C(=O)NCc3ccc(Nc4ccccc4C(F)(F)F)cc3)CCOC2)o1 [(68)],78
10,Nc1ncc(C(=O)NC2(C(=O)NCc3ccc(Nc4ccc(F)cc4C(F)(F)F)cn3)CC2)s1 [(184)],99
11,O=C(NC1(C(=O)NCc2ccc(Nc3cc(F)ccc3C(F)(F)F)cn2)CC1)c1cncnc1 [(42)],89
12,Nc1cc(C(=O)NC2(C(=O)NCc3ccc(Nc4ccc(F)cc4C(F)(F)F)cn3)CC2)[nH]n1 [(185)],87
13,N#C/C(=N\O)C(=O)N[C@@]1(C(=O)NCc2ccc(Nc3ccccc3C(F)(F)F)cc2)CCOC1 [(66)],81
14,O=C(N[C@@]1(C(=O)NCc2ccc(Nc3ccccc3C(F)(F)F)cc2)CCOC1)c1cccnn1 [(74)],56
15,CC(NC(=O)C1(NC(=O)c2cncnc2)CC1)c1ccc(Nc2c(F)cccc2C(F)(F)F)cn1 (stereo not shown) [(123)],110
16,Nc1cc(C(=O)N[C@@]2(C(=O)NCc3ccc(Nc4ccccc4C(F)(F)F)cc3)CCOC2)ccn1 [(63)],108
17,O=C(NC1(C(=O)NCc2ccc(Nc3c(F)cccc3Cl)cn2)CC1)c1cncnc1 [(200)],92
18,Nc1cc(C(=O)NC2(C(=O)NCc3ccc(Nc4ccc(F)cc4C(F)(F)F)cn3)CC2)on1 [(150)],105
19,O=C(NC1(C(=O)NCc2ccc(Nc3ccc(Cl)cc3Br)cn2)CC1)c1cncnc1 [(167)],104
20,CCC(=O)NC1(C(=O)NCc2ccc(Nc3ccccc3C(F)(F)F)cc2)CC1 [(13)],101
21,O=C(NC1(C(=O)NCc2ncc(Nc3c(F)cccc3C(F)(F)F)cc2F)CC1)c1cncnc1 [(120)],113
22,O=C(NC1(C(=O)NCc2ncc(Nc3c(F)cccc3C(F)(F)F)cc2F)CC1)c1cccc(O)n1 [(136)],104
23,O=C(NC1(C(=O)NCc2ccc(Nc3ccc(Br)cc3C(F)(F)F)cn2)CC1)c1cncnc1 [(54)],112
24,O=C(NC1(C(=O)NCc2ccc(Nc3ccccc3C(F)(F)F)cc2)CC1)C(F)(F)F [(23)],110
25,O=C(Cc1ccccn1)N[C@@]1(C(=O)NCc2ccc(Nc3ccccc3C(F)(F)F)cc2)CCOC1 [(59)],22
26,O=C(NC1(C(=O)NCc2ccc(Nc3ccccc3C(F)(F)F)cc2)CC1)c1cnc(O)nc1O [(9)],78
27,O=C(NC1(C(=O)NCc2ccc(Nc3ccccc3Cl)cc2)CC1)c1cncnc1 [(2)],100
